From patent US12565501B2, “Muscarinic acetylcholine M1 receptor antagonists” (Contineum Therapeutics, Inc., priority 2019, dated 2026)
pIC50: −log10 of the molar value.

target: T1, human M1 receptor (Homo sapiens, UniProt P11229); assay: In vitro functional assay of muscarinic acetylcholine receptor activity (aequorin calcium flux, reversal of EC80 acetylcholine response); assay type: cell-based; details: CHO-K1 cells stably expressing human M1 receptor with aequorin; acetylcholine at EC80; calcium flux (luminescence); read-out: M1 IC50
T1 sequence (P11229 1-460): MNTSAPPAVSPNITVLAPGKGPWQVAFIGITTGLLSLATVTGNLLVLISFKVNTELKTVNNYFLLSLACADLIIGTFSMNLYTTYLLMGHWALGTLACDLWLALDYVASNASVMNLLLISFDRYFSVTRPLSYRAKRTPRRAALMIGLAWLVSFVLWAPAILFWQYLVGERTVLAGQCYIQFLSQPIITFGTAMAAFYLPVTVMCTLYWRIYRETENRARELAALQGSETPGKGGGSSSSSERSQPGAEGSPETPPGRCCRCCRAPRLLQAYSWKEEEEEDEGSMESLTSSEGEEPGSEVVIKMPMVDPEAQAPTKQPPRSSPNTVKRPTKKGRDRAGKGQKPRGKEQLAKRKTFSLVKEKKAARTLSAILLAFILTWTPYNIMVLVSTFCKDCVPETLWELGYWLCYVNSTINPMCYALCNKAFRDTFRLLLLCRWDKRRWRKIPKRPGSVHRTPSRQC
Summary of the method: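 CHO-K1 cells expressing human M1 and aequorin, loaded with 5 μM coelenterazine for 4 h, preincubated with compound 30 min at room temperature, then challenged with EC80 acetylcholine.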

| SMILES | pIC50 |
| --- | --- |
| N#Cc1ccc(N2C3CCC2CN(C(=O)CNC2(c4ccccc4F)CC2)C3)nc1 [Example 61, 6-(3-((1-(2-fluorophenyl)cyclopropyl)glycyl)-3,8-diazabicyclo[3.2.1]octan-8-yl)nicotinonitrile] | 6.00 to 7.00 |
| N#Cc1ccc(N2C3CCC2CN(C(=O)COC2(c4ccccc4F)CC2)C3)nc1 [Example 207, 6-(3-(2-(1-(2-fluorophenyl)cyclopropoxy)acetyl)-3,8-diazabicyclo[3.2.1]octan-8-yl)nicotinonitrile] | 7.00 to 8.00 |
| COc1ncc(F)c(C2(OCC(=O)N3CC4CCC(C3)N4c3ccc(C#N)cn3)CCC2)c1F [Example 272, 6-(3-(2-(1-(3,5-difluoro-2-methoxypyridin-4-yl)cyclobutoxy)acetyl)-3,8-diazabicyclo[3.2.1]octan-8-yl)nicotinonitrile] | 7.00 to 8.00 |
| COc1ccc(F)c(C2(NCC(=O)N3CC4CCC(C3)N4c3ccc(C#N)cn3)CC2)c1 [Example 111, 6-(3-((1-(2-fluoro-5-methoxyphenyl)cyclopropyl)glycyl)-3,8-diazabicyclo[3.2.1]octan-8-yl)nicotinonitrile] | > 8.00 |
| COc1ccc2c(c1)C(NCC(=O)N1CC3CCC(C1)N3c1ccc(C#N)cn1)CC2 (racemic) [Example 90, 6-(3-((6-methoxy-2,3-dihydro-1H-inden-1-yl)glycyl)-3,8-diazabicyclo[3.2.1]octan-8-yl)nicotinonitrile] | 6.00 to 7.00 |
| N#Cc1ccc(N2[C@@H]3C[C@H]2CN(C(=O)COC2(c4ccc(F)c(F)c4)CC2)C3)nc1 [Example 284, 6-(3-(2-(1-(3,4-difluorophenyl)cyclopropoxy)acetyl)-3,6-diazabicyclo[3.1.1]heptan-6-yl)nicotinonitrile] | 5.00 to 6.00 |
| COc1cccc(C2(OCC(=O)N3CC4CCC(C3)N4c3ccc(C#N)cn3)CCC2)c1 [Example 237, 6-(3-(2-(1-(3-methoxyphenyl)cyclobutoxy)acetyl)-3,8-diazabicyclo[3.2.1]octan-8-yl)nicotinonitrile] | > 8.00 |
| COc1ccc(F)c(C2(NCC(=O)N3CC4CCC(C3)N4c3ccc(C#N)cn3)CCC2)c1F [Example 117, 6-(3-((1-(2,6-difluoro-3-methoxyphenyl)cyclobutyl)glycyl)-3,8-diazabicyclo[3.2.1]octan-8-yl)nicotinonitrile] | 6.00 to 7.00 |
| N#Cc1ccc(N2C3CCC2CN(C(=O)COC2(c4cncc(F)c4)CCCC2)C3)nc1 [Example 268, 6-(3-(2-((1-(5-fluoropyridin-3-yl)cyclopentyl)oxy)acetyl)-3,8-diazabicyclo[3.2.1]octan-8-yl)nicotinonitrile] | 7.00 to 8.00 |
| N#Cc1ccc(N2[C@@H]3CC[C@H]2CN(C(=O)CCNC2(c4ccc(F)nc4)CC2)C3)nc1 [Example 28, 6-(3-(3-((1-(6-fluoropyridin-3-yl)cyclopropyl)amino)propanoyl)-3,8-diazabicyclo[3.2.1]octan-8-yl)nicotinonitrile] | > 8.00 |
| COc1ncccc1C1(OCC(=O)N2CC3CCC(C2)N3c2ccc(C#N)cn2)CCC1 [Example 254, 6-(3-(2-(1-(2-methoxypyridin-3-yl)cyclobutoxy)acetyl)-3,8-diazabicyclo[3.2.1]octan-8-yl)nicotinonitrile] | > 8.00 |
